# Test results reported in ChEMBL document CHEMBL1165990, “Semi-synthetic analogues of thiostrepton delimit the critical nature of tail region modifications in the control of protein biosynthesis and antibacterial activity” (Bioorg Med Chem, 2010).
# The source made the active and inactive calls. No cut-off for these calls is given here.
# Key:
# Escherichia coli [1] = test: Antibacterial activity against Escherichia coli by NCCLS method; format: functional
# Escherichia coli [2] = test: Antibacterial activity against Escherichia coli assessed as inhibition of protein synthesis at 0.1 to 0.4 uM after 60 mins by luminescence assay; format: functional, organism-based
# Escherichia coli [3] = test: Antibacterial activity against Escherichia coli assessed as inhibition of protein synthesis after 60 mins by luminescence assay; format: functional, organism-based
# Bacillus subtilis [4] = test: Antibacterial activity against Bacillus subtilis ATCC 6633 by NCCLS method; format: functional
# [5] = Aqueous solubility of the compound; format: physicochemical; settings: buffer
# Staphylococcus aureus [6] = test: Antibacterial activity against Staphylococcus aureus ATCC 6338 by NCCLS method; format: functional
# Escherichia coli [7] = test: Antibacterial activity against Escherichia coli assessed as inhibition of protein synthesis at 0.01 to 0.96 uM after 60 mins by luminescence assay; format: functional, organism-based
# Staphylococcus aureus [8] = test: Antibacterial activity against Staphylococcus aureus ATCC 6338 by disk diffusion assay; format: functional
# Escherichia coli [9] = test: Antibacterial activity against Escherichia coli by disk diffusion assay; format: functional
# Bacillus subtilis [10] = test: Antibacterial activity against Bacillus subtilis ATCC 6633 by disk diffusion assay; format: functional
MIC (Escherichia coli [1]) [µg/mL],MIC (Bacillus subtilis [4]) [µg/mL],MIC (Staphylococcus aureus [6]) [µg/mL],Structure (SMILES),inhibition (Escherichia coli [2]),further results
≥ 128,≤ 8,≤ 2,C=C(NC(=O)c1csc(C2=N[C@@H]3c4csc(n4)[C@H]4NC(=O)c5csc(n5)[C@H]([C@](C)(O)[C@H](C)O)NC(=O)[C@H]5CSC(=N5)/C(=C/C)NC(=O)[C@H]([C@@H](C)O)NC(=O)c5csc(n5)[C@]3(CC2)NC(=O)[C@H](C)NC(=O)C(=C)NC(=O)[C@H](C)NC(=O)[C@H]([C@@H](C)CC)N[C@@H]2C=Cc3c([C@H](C)O)cc(nc3[C@H]2O)C(=O)O[C@@H]4C)n1)C(=O)NC(CSCCS(=O)(=O)O)C(N)=O (stereo partly drawn),Active,inhibition (Escherichia coli [3]): Dose-dependent effect; solubility [5]: Soluble
≥ 32,≤ 0.25,≤ 0.0625,C=C(NC(=O)C(=C)NC(=O)c1csc(C2=N[C@@H]3c4csc(n4)[C@H]4NC(=O)c5csc(n5)[C@H]([C@](C)(O)[C@@H](C)O)NC(=O)[C@H]5CSC(=N5)/C(=C/C)NC(=O)[C@H]([C@@H](C)O)NC(=O)c5csc(n5)[C@]3(CC2)NC(=O)[C@H](C)NC(=O)C(=C)NC(=O)[C@H](C)NC(=O)[C@H]([C@@H](C)CC)N[C@@H]2C=Cc3c([C@H](C)O)cc(nc3[C@H]2O)C(=O)O[C@@H]4C)n1)C(N)=O [THIOSTREPTON],,inhibition (Escherichia coli [7]): Active

# More lines, now with the values behind:
Structure (SMILES),MIC (Escherichia coli [1]) [µg/mL],MIC (Bacillus subtilis [4]) [µg/mL],MIC (Staphylococcus aureus [6]) [µg/mL],inhibition (Escherichia coli [2]),further results
C=C(NC(=O)c1csc(C2=N[C@@H]3c4csc(n4)[C@H]4NC(=O)c5csc(n5)[C@H]([C@](C)(O)[C@H](C)O)NC(=O)[C@H]5CSC(=N5)/C(=C/C)NC(=O)[C@H]([C@@H](C)O)NC(=O)c5csc(n5)[C@]3(CC2)NC(=O)[C@H](C)NC(=O)C(=C)NC(=O)[C@H](C)NC(=O)[C@H]([C@@H](C)CC)N[C@@H]2C=Cc3c([C@H](C)O)cc(nc3[C@H]2O)C(=O)O[C@@H]4C)n1)C(=O)NC(CSC[C@@H](C)C(=O)N1CCC[C@H]1C(=O)O)C(N)=O (stereo in doubt; 4) [listing 1 of 2 here],,,,Active,
C=C(NC(=O)c1csc(C2=N[C@@H]3c4csc(n4)[C@H]4NC(=O)c5csc(n5)[C@H]([C@](C)(O)[C@H](C)O)NC(=O)[C@H]5CSC(=N5)/C(=C/C)NC(=O)[C@H]([C@@H](C)O)NC(=O)c5csc(n5)[C@]3(CC2)NC(=O)[C@H](C)NC(=O)C(=C)NC(=O)[C@H](C)NC(=O)[C@H]([C@@H](C)CC)N[C@@H]2C=Cc3c([C@H](C)O)cc(nc3[C@H]2O)C(=O)O[C@@H]4C)n1)C(=O)NC(CSC[C@@H](C)C(=O)N1CCC[C@H]1C(=O)O)C(N)=O (stereo in doubt; 4) [listing 2 of 2 here],≥ 128,≤ 32,≤ 32,,
C=C(NC(=O)c1csc(C2=N[C@@H]3c4csc(n4)[C@H]4NC(=O)c5csc(n5)[C@H]([C@](C)(O)[C@H](C)O)NC(=O)[C@H]5CSC(=N5)/C(=C/C)NC(=O)[C@H]([C@@H](C)O)NC(=O)c5csc(n5)[C@]3(CC2)NC(=O)[C@H](C)NC(=O)C(=C)NC(=O)[C@H](C)NC(=O)[C@H]([C@@H](C)CC)N[C@@H]2C=Cc3c([C@H](C)O)cc(nc3[C@H]2O)C(=O)O[C@@H]4C)n1)C(=O)NC(CSC[C@@H](C)C(=O)N1CCC[C@H]1C(=O)O)C(N)=O (stereo in doubt; 3),,,,Active,
C=C(NC(=O)c1csc(C2=N[C@@H]3c4csc(n4)[C@H]4NC(=O)c5csc(n5)[C@H]([C@](C)(O)[C@H](C)O)NC(=O)[C@H]5CSC(=N5)/C(=C/C)NC(=O)[C@H]([C@@H](C)O)NC(=O)c5csc(n5)[C@]3(CC2)NC(=O)[C@H](C)NC(=O)C(=C)NC(=O)[C@H](C)NC(=O)[C@H]([C@@H](C)CC)N[C@@H]2C=Cc3c([C@H](C)O)cc(nc3[C@H]2O)C(=O)O[C@@H]4C)n1)C(=O)NC(CS[C@@H]1O[C@H](CO)[C@@H](O)[C@H](O)[C@H]1O)C(N)=O (stereo partly drawn),,,,,MIC (Staphylococcus aureus [8]): ≥ 50 µg/mL; MIC (Escherichia coli [9]): ≥ 50 µg/mL; MIC (Bacillus subtilis [10]): ≥ 50 µg/mL
